Series [1] concerns the target T1, UDP-glucuronosyltransferase 1A8 (Homo sapiens, UniProt Q9HAW9).
T1 sequence (Q9HAW9 whole entry): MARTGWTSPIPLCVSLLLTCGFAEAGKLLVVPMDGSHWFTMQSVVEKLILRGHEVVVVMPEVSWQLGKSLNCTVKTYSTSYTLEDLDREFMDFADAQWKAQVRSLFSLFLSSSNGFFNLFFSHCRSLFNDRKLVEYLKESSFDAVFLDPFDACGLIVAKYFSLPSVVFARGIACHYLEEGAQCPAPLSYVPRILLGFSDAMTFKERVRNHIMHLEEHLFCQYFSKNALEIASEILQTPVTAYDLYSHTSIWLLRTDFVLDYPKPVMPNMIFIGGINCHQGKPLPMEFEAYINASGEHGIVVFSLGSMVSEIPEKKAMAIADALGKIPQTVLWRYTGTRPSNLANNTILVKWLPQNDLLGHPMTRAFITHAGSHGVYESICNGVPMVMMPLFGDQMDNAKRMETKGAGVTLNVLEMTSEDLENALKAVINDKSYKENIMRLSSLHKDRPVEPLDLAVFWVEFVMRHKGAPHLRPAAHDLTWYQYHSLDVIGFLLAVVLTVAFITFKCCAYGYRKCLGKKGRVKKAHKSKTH
Briefly: Drug metabolism assessed as UGT1A8 (unknown origin)-mediated metabolite formation. It is filed as ADME.

Series [2] concerns the target T2, UDP-glucuronosyltransferase 1A9 (Homo sapiens, UniProt O60656).
T2 sequence (O60656 whole entry): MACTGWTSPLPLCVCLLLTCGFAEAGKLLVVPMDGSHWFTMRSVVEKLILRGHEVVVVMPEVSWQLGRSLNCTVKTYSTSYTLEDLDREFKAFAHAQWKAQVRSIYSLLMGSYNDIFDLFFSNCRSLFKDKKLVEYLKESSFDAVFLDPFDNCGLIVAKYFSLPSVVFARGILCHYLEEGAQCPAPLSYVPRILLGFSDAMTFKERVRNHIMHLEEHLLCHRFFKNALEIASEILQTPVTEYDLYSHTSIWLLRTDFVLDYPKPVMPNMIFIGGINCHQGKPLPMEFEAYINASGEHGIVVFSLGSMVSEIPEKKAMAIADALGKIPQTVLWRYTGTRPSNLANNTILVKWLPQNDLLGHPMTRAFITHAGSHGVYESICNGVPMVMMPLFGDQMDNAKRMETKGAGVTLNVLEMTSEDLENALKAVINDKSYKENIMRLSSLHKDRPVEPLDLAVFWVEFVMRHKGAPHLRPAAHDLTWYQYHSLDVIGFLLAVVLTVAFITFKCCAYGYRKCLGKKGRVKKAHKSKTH
Briefly: Drug metabolism assessed as UGT1A9 (unknown origin)-mediated metabolite formation. It is filed as ADME.

Series [3] concerns the target T3, UDP-glucuronosyltransferase 2B7 (Homo sapiens, UniProt P16662).
T3 sequence (P16662 whole entry): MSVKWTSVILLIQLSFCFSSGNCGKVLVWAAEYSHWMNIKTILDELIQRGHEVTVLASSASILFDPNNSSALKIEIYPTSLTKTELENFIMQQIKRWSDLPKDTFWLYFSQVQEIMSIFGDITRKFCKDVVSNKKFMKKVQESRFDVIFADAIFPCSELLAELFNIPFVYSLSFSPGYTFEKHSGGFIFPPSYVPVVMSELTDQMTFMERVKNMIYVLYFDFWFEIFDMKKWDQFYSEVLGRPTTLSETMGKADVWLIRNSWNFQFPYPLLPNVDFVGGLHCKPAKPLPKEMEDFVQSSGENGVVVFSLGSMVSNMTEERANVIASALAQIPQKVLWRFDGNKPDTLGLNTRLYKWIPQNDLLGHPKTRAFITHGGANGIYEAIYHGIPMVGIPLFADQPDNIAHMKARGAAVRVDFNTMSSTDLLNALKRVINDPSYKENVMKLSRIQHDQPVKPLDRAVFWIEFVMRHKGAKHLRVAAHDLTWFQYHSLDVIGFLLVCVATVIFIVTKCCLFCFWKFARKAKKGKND
Put plainly: Drug metabolism assessed as UGT2B7 (unknown origin)-mediated metabolite formation. It is filed as ADME.

Series [4] concerns the target Cytochrome P450 2D6 (Homo sapiens, UniProt P10635).
Description: Drug metabolism assessed as CYP2D6 (unknown origin)-mediated metabolite formation
Series [5] has as its target T4, UDP-glucuronosyltransferase 1A6 (Homo sapiens, UniProt P19224).
T4 sequence (P19224 whole entry): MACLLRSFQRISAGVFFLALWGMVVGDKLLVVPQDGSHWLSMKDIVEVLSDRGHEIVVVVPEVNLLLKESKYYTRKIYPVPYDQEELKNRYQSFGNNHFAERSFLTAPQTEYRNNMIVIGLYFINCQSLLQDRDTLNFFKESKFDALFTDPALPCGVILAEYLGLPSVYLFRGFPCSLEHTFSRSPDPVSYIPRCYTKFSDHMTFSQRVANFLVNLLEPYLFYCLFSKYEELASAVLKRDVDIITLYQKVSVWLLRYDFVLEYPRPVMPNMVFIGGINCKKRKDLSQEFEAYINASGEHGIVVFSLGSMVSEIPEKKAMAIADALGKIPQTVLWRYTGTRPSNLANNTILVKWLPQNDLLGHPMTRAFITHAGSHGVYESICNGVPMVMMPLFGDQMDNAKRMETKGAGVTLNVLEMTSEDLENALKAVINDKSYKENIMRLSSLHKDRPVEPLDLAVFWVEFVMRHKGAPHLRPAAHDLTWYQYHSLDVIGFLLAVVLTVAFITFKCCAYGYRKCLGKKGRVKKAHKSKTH
Put plainly: Drug metabolism assessed as UGT1A6 (unknown origin)-mediated metabolite formation. It is filed as ADME.

The target of series [6] is Cytochrome P450 3A4 (Homo sapiens, UniProt P08684).
Sequence of Cytochrome P450 3A4 (P08684 whole entry): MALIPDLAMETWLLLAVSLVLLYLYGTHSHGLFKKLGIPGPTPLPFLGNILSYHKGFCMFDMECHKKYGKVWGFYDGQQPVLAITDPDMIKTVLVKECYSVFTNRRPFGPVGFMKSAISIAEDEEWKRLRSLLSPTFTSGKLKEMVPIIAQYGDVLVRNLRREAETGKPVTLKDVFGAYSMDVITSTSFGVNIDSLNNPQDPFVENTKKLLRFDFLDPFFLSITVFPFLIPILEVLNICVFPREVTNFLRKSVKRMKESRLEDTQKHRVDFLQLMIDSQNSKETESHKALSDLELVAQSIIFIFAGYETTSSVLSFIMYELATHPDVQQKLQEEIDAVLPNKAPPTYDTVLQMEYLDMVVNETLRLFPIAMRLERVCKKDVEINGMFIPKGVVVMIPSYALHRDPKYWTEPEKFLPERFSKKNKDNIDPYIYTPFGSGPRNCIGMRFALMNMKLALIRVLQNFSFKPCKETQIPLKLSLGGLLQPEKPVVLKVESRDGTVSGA
Description: Drug metabolism assessed as CYP3A4 (unknown origin)-mediated metabolite formation
Series [7] concerns the target Cytochrome P450 2C19 (Homo sapiens, UniProt P33261).
Description: Drug metabolism assessed as CYP2C19 (unknown origin)-mediated metabolite formation
For series [8], the target named is T5, UDP-glucuronosyltransferase 1A10 (Homo sapiens, UniProt Q9HAW8).
T5 sequence (Q9HAW8 whole entry): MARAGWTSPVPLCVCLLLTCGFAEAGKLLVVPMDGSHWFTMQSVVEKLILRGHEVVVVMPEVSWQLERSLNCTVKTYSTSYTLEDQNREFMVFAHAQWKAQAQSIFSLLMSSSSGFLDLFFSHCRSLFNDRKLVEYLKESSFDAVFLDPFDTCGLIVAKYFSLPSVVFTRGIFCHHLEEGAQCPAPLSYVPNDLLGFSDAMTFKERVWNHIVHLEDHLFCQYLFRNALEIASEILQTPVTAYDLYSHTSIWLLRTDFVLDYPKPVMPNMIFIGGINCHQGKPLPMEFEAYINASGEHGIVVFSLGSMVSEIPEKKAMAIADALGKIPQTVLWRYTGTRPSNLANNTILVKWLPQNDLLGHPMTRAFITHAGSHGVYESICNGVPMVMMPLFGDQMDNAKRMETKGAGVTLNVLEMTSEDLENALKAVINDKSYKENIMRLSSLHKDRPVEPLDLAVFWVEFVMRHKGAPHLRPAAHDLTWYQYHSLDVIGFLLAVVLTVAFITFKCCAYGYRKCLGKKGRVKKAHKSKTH
Briefly: Drug metabolism assessed as UGT1A10 (unknown origin)-mediated metabolite formation. It is filed as ADME.

The nature of series [9]: n-Octanol/PBS distribution coefficient, log D of the compound at pH 7.4 at 25 mM after 2 hrs. The series is classed as physicochemical.
A short description of series [10]: Cytotoxicity against Swiss mouse peritoneal macrophages after 24 hrs by LDH-release assay. It is filed as cell-based, Peritoneal macrophage.

Sequence of Cytochrome P450 2C19 (P33261 whole entry): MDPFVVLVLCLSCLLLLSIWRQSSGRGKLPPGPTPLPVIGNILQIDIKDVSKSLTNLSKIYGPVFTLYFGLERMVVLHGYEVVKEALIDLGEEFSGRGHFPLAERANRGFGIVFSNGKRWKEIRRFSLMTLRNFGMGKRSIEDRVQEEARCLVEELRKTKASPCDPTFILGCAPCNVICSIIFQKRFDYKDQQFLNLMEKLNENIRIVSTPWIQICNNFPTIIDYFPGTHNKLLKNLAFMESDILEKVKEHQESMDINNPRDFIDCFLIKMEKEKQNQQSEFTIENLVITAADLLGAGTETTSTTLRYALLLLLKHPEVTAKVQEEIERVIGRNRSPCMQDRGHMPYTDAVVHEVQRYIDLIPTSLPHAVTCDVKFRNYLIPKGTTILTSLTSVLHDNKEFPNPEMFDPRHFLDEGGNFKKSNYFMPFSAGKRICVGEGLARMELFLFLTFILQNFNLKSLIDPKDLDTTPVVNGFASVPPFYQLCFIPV
Sequence of Cytochrome P450 2D6 (P10635 whole entry): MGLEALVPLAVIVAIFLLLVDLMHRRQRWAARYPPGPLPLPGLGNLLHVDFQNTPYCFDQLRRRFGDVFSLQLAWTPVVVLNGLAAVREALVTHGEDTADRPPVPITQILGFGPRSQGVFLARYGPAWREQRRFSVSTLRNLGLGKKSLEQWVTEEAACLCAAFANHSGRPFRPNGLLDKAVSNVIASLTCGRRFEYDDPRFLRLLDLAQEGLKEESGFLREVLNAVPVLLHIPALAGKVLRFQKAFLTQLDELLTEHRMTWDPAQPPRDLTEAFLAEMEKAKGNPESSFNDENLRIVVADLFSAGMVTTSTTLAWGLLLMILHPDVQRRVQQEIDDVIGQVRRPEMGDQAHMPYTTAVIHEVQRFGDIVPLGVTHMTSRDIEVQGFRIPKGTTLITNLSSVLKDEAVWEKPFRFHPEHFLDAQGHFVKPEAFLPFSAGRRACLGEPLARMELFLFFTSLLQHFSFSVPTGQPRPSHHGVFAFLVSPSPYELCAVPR

As for `CC(C)Cc1ccc(C(C)C(=O)O)cc1` (stereo unspecified) [IBUPROFEN], the Drug metabolism entry in series [1] is recorded as “Metabolite_Notdetected”; in [2] it was “Metabolite_Detected”; in series [3] it was “Metabolite_Detected”; in series [4] it was “Metabolite_Notdetected”; in series [5] it was “Metabolite_Detected”; in series [6], “Metabolite_Notdetected”. Moreover, the Drug metabolism entry in [7] and in series [8] was “Metabolite_Notdetected” in each case.

`COc1ccc2cc([C@H](C)C(=O)O)ccc2c1` [NAPROXEN]: the Drug metabolism entry in [1] is “Metabolite_Notdetected”; in series [2], “Metabolite_Detected”; in series [3] it was “Metabolite_Detected”; in series [5], “Metabolite_Detected”; in [8] it was “Metabolite_Notdetected”.

With `O=C(O)Cc1ccccc1Nc1c(Cl)cccc1Cl` [DICLOFENAC], the Drug metabolism result in series [1] is on record as “Metabolite_Notdetected”; in [2], “Metabolite_Notdetected”; in series [3], “Metabolite_Detected”; in series [4] it was “Metabolite_Notdetected”; in [5] it was “Metabolite_Notdetected”; in [6], “Metabolite_Notdetected”. Further, the Drug metabolism entry in [7] and in [8] was “Metabolite_Notdetected” each time.

For the compound `CCOCc1cn(-c2ccc(Cl)cc2)nn1`, the Drug metabolism entry in series [1], in [2], in series [3], in series [4], in [5] and in series [6] was “Metabolite_Notdetected” each time. Besides, the Drug metabolism result in [7] and in [8] was “Metabolite_Notdetected” throughout. This compound also yielded a logD at 2 h, 25000 µM in series [9] of -1.96. The compound further returned a CC50 at 24 h in series [10] of 4.03 µM.
